# Source: patent US20140073700A1, “[…] ACID DERIVATIVES AND METHODS OF USE THEREOF” (AbbVie Inc., priority 2012, published 2014)
# pIC50: −log10 of the molar value.
# Tested on: IFNγ-Induced NO Production in RAW 264.7 cells
# Assay: Nitric Oxide Suppression Assay (suppression of IFNγ-induced NO production)
# Assay type: cell-based
# Settings: RAW264.7; RAW 264.7 mouse macrophage cells, 20 ng/mL interferon gamma, Griess detection; single curve fit to mean data of n=2-3
# Method: RAW 264.7, a mouse macrophage cell line, was obtained from American Type Culture Collection (Manassas Va.) and maintained in the log phase of growth in Dulbecco's Modified Eagle's Medium (DMEM), 10% heat inactivated fetal calf serum and 100 units/mL antibiotic-antimycotic (AA). Cells were cultured and maintained in a humidified incubator at 37° C. under 5% CO2 and 95% air. Cells were sub-cultured every 3 days by scraping and were not used beyond passage 20. All cell culture supplies were obtained from Life Technologies (Grand Island, N.Y.).
# RAW 264.7 cells were plated 1 day in advance of experiment at a concentration of 80,000 cells/well onto CellBIND® 96 well plates (Corning, N.Y.) in a total volume of 100 μL. The next day, pre-treat cells with compounds (from 3 μM to 0.3 nM serially diluted in a 10 point curve) from a 10× stock by adding 10 μL per well in complete DMEM media containing 10% fetal calf serum. The plates were centrifuged for 3 minutes at 400×g at room temperature followed by 2 hour incubation at 37° C. The cells were then incubated overnight at 37° C. with 10 μL of the insult, interferon gamma (R&D Systems, Minneapolis, Minn.), from a 10× stock for a final concentration of 20 ng/mL. The plates were centrifuged for 3 minutes at 400×g at room temperature followed by 18 hour incubation at 37° C. The following day, transfer 50 μL cell culture supernatant from each well into a clear bottom 96 well plate and follow the instructions from Promega's Griess Detection Kit #G2930 (Madison, Wis.) which involves the addition of 50 μL of the provided sulfanilamide solution for a 5-10 minute incubation at room temperature. Next add 50 μL of the provided N-1-napthylethylenediamine dihydrochloride (NED) solution for a 5-10 minute incubation at room temperature and protected from light. If any air bubbles were introduced into the well, the plates need to be centrifuged for 5 minutes at 400×g at room temperature to avoid interference with absorbance readings. The plates were read for absorbance within 30 minutes with a filter between 520 nm and 550 nm.
# For the ability of compounds to suppress the increase in nitric oxide release, the percent maximal intensity of nitric oxide detected in each well was normalized to that induced by the peak value for 20 ng/mL of interferon gamma alone and plotted against the compound concentration to calculate IC50 values and to control for plate-to-plate variability. Concentration-response data were analyzed using GraphPad Prism (San Diego, Calif.); the IC50 values were derived from a single curve fit to the mean data of n=2-3, in duplicates.
# All compounds were dissolved in dimethyl sulfoxide at 10 mM stock solutions and tested at a concentration that the dimethyl sulfoxide levels never exceeded 1%.
row,SMILES,pIC50
1,"COC(=O)[C@@]1(C)CC[C@]2(C)CC[C@@]3(C)[C@]4(C)CC[C@H]5C(C)(C)C(=O)C(C#N)=C[C@]5(C)C4=CC(=O)[C@]3(O)[C@@H]2C1 [Example 1, (2S,4aS,6aS,6bR,8aR,12aS,14aS,14bR)-methyl 11-cyano-14a-hydroxy-2,4a,6a,6b,9,9,12a-heptamethyl-10,14-dioxo-1,2,3,4,4a,5,6,6a,6b,7,8,8a,9,10,12a,14,14a,14b-octadecahydropicene-2-carboxylate]",7.79
2,"COC(=O)[C@@]1(C)CC[C@]2(C)CC[C@]3(C)[C@H](C(=O)C=C4[C@@]5(C)C=C(C#N)C(=O)C(C)(C)[C@@H]5CC[C@]43C)[C@@H]2C1 [Example 2, (2S,4aS,6aR,6bS,8aR,12aS,14aR,14bS)-methyl 11-cyano-2,4a,6a,6b,9,9,12a-heptamethyl-10,14-dioxo-1,2,3,4,4a,5,6,6a,6b,7,8,8a,9,10,12a,14,14a,14b-octadecahydropicene-2-carboxylate]",6.70
3,"CC1(C)C(=O)C(C#N)=C[C@]2(C)C3=CC(=O)[C@]4(O)[C@@H]5C[C@@](C)(C(=O)NCc6cnco6)CC[C@]5(C)CC[C@@]4(C)[C@]3(C)CC[C@@H]12 [Example 3, (2S,4aS,6aS,6bR,8aR,12aS,14aS,14bR)-11-cyano-14a-hydroxy-2,4a,6a,6b,9,9,12a-heptamethyl-N-(1,3-oxazol-5-ylmethyl)-10,14-dioxo-1,2,3,4,4a,5,6,6a,6b,7,8,8a,9,10,12a,14,14a,14b-octadecahydropicene-2-carboxamide]",7.84
4,"CC1(C)C(=O)C(C#N)=C[C@]2(C)C3=CC(=O)[C@]4(O)[C@@H]5C[C@@](C)(C(=O)O)CC[C@]5(C)CC[C@@]4(C)[C@]3(C)CC[C@@H]12 [Example 3D, (2S,4aS,6aS,6bR,8aR,12aS,14aS,14bR)-11-cyano-14a-hydroxy-2,4a,6a,6b,9,9,12a-heptamethyl-10,14-dioxo-1,2,3,4,4a,5,6,6a,6b,7,8,8a,9,10,12a,14,14a,14b-octadecahydropicene-2-carboxylic acid]",6.52
5,"CC1(C)C(=O)C(C#N)=C[C@]2(C)C3=CC(=O)[C@]4(O)[C@@H]5C[C@@](C)(C(=O)NCCO)CC[C@]5(C)CC[C@@]4(C)[C@]3(C)CC[C@@H]12 [Example 4, (2S,4aS,6aS,6bR,8aR,12aS,14aS,14bR)-11-cyano-14a-hydroxy-N-(2-hydroxyethyl)-2,4a,6a,6b,9,9,12a-heptamethyl-10,14-dioxo-1,2,3,4,4a,5,6,6a,6b,7,8,8a,9,10,12a,14,14a,14b-octadecahydropicene-2-carboxamide]",7.26
6,"CC1(C)C(=O)C(C#N)=C[C@]2(C)C3=CC(=O)[C@]4(O)[C@@H]5C[C@@](C)(C(=O)NCc6ccnnc6)CC[C@]5(C)CC[C@@]4(C)[C@]3(C)CC[C@@H]12 [Example 5, (2S,4aS,6aS,6bR,8aR,12aS,14aS,14bR)-11-cyano-14a-hydroxy-2,4a,6a,6b,9,9,12a-heptamethyl-10,14-dioxo-N-(pyridazin-4-ylmethyl)-1,2,3,4,4a,5,6,6a,6b,7,8,8a,9,10,12a,14,14a,14b-octadecahydropicene-2-carboxamide]",7.30
7,"CCCN(C)C(=O)[C@@]1(C)CC[C@]2(C)CC[C@@]3(C)[C@]4(C)CC[C@H]5C(C)(C)C(=O)C(C#N)=C[C@]5(C)C4=CC(=O)[C@]3(O)[C@@H]2C1 [Example 6, (2S,4aS,6aS,6bR,8aR,12aS,14aS,14bR)-11-cyano-14a-hydroxy-N,2,4a,6a,6b,9,9,12a-octamethyl-10,14-dioxo-N-propyl-1,2,3,4,4a,5,6,6a,6b,7,8,8a,9,10,12a,14,14a,14b-octadecahydropicene-2-carboxamide]",7.45
8,"CC(C)(C)CNC(=O)[C@@]1(C)CC[C@]2(C)CC[C@@]3(C)[C@]4(C)CC[C@H]5C(C)(C)C(=O)C(C#N)=C[C@]5(C)C4=CC(=O)[C@]3(O)[C@@H]2C1 [Example 7, (2S,4aS,6aS,6bR,8aR,12aS,14aS,14bR)-11-cyano-N-(2,2-dimethylpropyl)-14a-hydroxy-2,4a,6a,6b,9,9,12a-heptamethyl-10,14-dioxo-1,2,3,4,4a,5,6,6a,6b,7,8,8a,9,10,12a,14,14a,14b-octadecahydropicene-2-carboxamide]",7.65
